# In publication PMC5439695 (PLoS ONE, 2017):
# Structures can show the parent of a compound that is named as a salt.
# Legend:
# estrogen receptor (ER) = conditions: cited from earlier work; for AUC score in Judson 2015: ER antagonist, ToxCast chemicals only, ref Judson 2015
# HepG2 cells [1] = experiment: CellTox Green Cytotoxicity Assay (flor) in HepG2, HepG2[flor]; format: cell-based, human; conditions: HepG2 flor;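 on hepg2 flor emax 0: percent activity versus DMSO-only wells with baseline rescaled to 0%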;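 on hepg2 flor emax 40: percent activity versus DMSO-only wells with baseline rescaled to 0%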
# HEK293 cells [2] = conditions: HEK293 glo
# HEK293 cells [3] = conditions: HEK293 flor
# HepG2 cells [4] = conditions: HepG2 glo
# [5] = test system: HEK293 and HepG2 cell lines; conditions: any activity in any time point/assay
# [6] = time point 8, given as negative log-scale values
# [7] = time point 16, given as negative log-scale values
# [8] = time point 24, given as negative log-scale values
# [9] = time point 32, given as negative log-scale values
# [10] = time point 40, given as negative log-scale values
compound,measurement,setting,value
CC(C)(C)c1cc(/C=C2\SC(N)=NC2=O)cc(C(C)(C)C)c1O [Darbufelone mesylate],AUC score in Judson 2015,estrogen receptor (ER),0
OC(c1ccc(Cl)cc1)(c1cncnc1)c1ccccc1Cl (stereo not shown) [Fenarimol],AUC score in Judson 2015,estrogen receptor (ER),0.000907
CCCCC(O)(Cn1cncn1)c1ccc(Cl)cc1Cl (stereo not shown) [Hexaconazole],AUC score in Judson 2015,estrogen receptor (ER),0.00822
CC(C)C1CCC(Cc2ccc(Cl)cc2)C1(O)Cn1cncn1 (stereo not shown) [Ipconazole],AUC score in Judson 2015,estrogen receptor (ER),0.0166
CN(C)c1ccc(C(=C2C=CC(=[N+](C)C)C=C2)c2ccccc2)cc1.CN(C)c1ccc(C(=C2C=CC(=[N+](C)C)C=C2)c2ccccc2)cc1.O=C(O)C(=O)O.O=C([O-])C(=O)O.O=C([O-])C(=O)O [Malachite green oxalate],hepg2_flor_auc,HepG2 cells [1],1.813
same,hepg2_flor_time,HepG2 cells [1],8
same,hepg2_flor_bin,HepG2 cells [1]; kinetics bin,cv_26 (cv_26: 8 < time < 16)
same,hepg2_flor_emax_0,HepG2 cells [1]; time point 0,0
same,hepg2_flor_pod_0,HepG2 cells [1]; time point 0,-4.417
same,hepg2_flor_wauc_0,HepG2 cells [1]; time point 0,0
same,hepg2_flor_emax_8,HepG2 cells [1]; time point 8,44.8674
same,hepg2_flor_pod_8,HepG2 cells [1]; time point 8,-4.571
same,hepg2_flor_wauc_8,HepG2 cells [1]; time point 8,0.868
same,hepg2_flor_ec50_8,HepG2 cells [1]; [6],-4.591
same,hepg2_flor_emax_16,HepG2 cells [1]; time point 16,142.047
same,hepg2_flor_pod_16,HepG2 cells [1]; time point 16,-5.554
same,hepg2_flor_wauc_16,HepG2 cells [1]; time point 16,1.871
same,hepg2_flor_ec50_16,HepG2 cells [1]; [7],-4.76
same,hepg2_flor_emax_24,HepG2 cells [1]; time point 24,168.072
same,hepg2_flor_pod_24,HepG2 cells [1]; time point 24,-5.707
same,hepg2_flor_wauc_24,HepG2 cells [1]; time point 24,2.035
same,hepg2_flor_ec50_24,HepG2 cells [1]; [8],-5.438
same,hepg2_flor_emax_32,HepG2 cells [1]; time point 32,231.16
same,hepg2_flor_pod_32,HepG2 cells [1]; time point 32,-5.746
same,hepg2_flor_wauc_32,HepG2 cells [1]; time point 32,2.119
same,hepg2_flor_ec50_32,HepG2 cells [1]; [9],-5.498
same,hepg2_flor_emax_40,HepG2 cells [1]; time point 40,275.23
same,hepg2_flor_pod_40,HepG2 cells [1]; time point 40,-6.016
same,hepg2_flor_wauc_40,HepG2 cells [1]; time point 40,2.222
same,hepg2_flor_ec50_40,HepG2 cells [1]; [10],-5.565
same,hek293_glo_auc,HEK293 cells [2],1.897
same,hek293_glo_time,HEK293 cells [2],8
same,hek293_glo_bin,HEK293 cells [2]; kinetics bin,cv_26 (cv_26: 8 < time < 16)
same,hek293_glo_emax_0,HEK293 cells [2]; time point 0,0
same,hek293_glo_pod_0,HEK293 cells [2]; time point 0,-4.417
same,hek293_glo_wauc_0,HEK293 cells [2]; time point 0,0
same,hek293_glo_emax_8,HEK293 cells [2]; time point 8,-47.964
same,hek293_glo_pod_8,HEK293 cells [2]; time point 8,-5.267
same,hek293_glo_wauc_8,HEK293 cells [2]; time point 8,1.621
same,hek293_glo_ec50_8,HEK293 cells [2]; [6],-5.275
same,hek293_glo_emax_16,HEK293 cells [2]; time point 16,-74.3913
same,hek293_glo_pod_16,HEK293 cells [2]; time point 16,-6.896
same,hek293_glo_wauc_16,HEK293 cells [2]; time point 16,2.239
same,hek293_glo_ec50_16,HEK293 cells [2]; [7],-5.71
same,hek293_glo_emax_24,HEK293 cells [2]; time point 24,-84.5759
same,hek293_glo_pod_24,HEK293 cells [2]; time point 24,-6.8943
same,hek293_glo_wauc_24,HEK293 cells [2]; time point 24,2.321
same,hek293_glo_ec50_24,HEK293 cells [2]; [8],-6.073
same,hek293_glo_emax_32,HEK293 cells [2]; time point 32,-91.2313
same,hek293_glo_pod_32,HEK293 cells [2]; time point 32,-6.927
same,hek293_glo_wauc_32,HEK293 cells [2]; time point 32,2.36
same,hek293_glo_ec50_32,HEK293 cells [2]; [9],-6.025
same,hek293_glo_emax_40,HEK293 cells [2]; time point 40,-94.0423
same,hek293_glo_pod_40,HEK293 cells [2]; time point 40,-6.941
same,hek293_glo_wauc_40,HEK293 cells [2]; time point 40,2.382
same,hek293_glo_ec50_40,HEK293 cells [2]; [10],-6.071
same,hek293_flor_auc,HEK293 cells [3],1.491
same,hek293_flor_time,HEK293 cells [3],24
same,hek293_flor_bin,HEK293 cells [3]; kinetics bin,cv_46 (cv_46: 24 < time < 32)
same,hek293_flor_emax_0,HEK293 cells [3]; time point 0,0
same,hek293_flor_pod_0,HEK293 cells [3]; time point 0,-4.417
same,hek293_flor_wauc_0,HEK293 cells [3]; time point 0,0
same,hek293_flor_emax_8,HEK293 cells [3]; time point 8,0
same,hek293_flor_pod_8,HEK293 cells [3]; time point 8,-4.417
same,hek293_flor_wauc_8,HEK293 cells [3]; time point 8,0
same,hek293_flor_emax_16,HEK293 cells [3]; time point 16,25.2441
same,hek293_flor_pod_16,HEK293 cells [3]; time point 16,-4.42
same,hek293_flor_wauc_16,HEK293 cells [3]; time point 16,0.5325
same,hek293_flor_ec50_16,HEK293 cells [3]; [7],-4.591
same,hek293_flor_emax_24,HEK293 cells [3]; time point 24,72.6532
same,hek293_flor_pod_24,HEK293 cells [3]; time point 24,-4.806
same,hek293_flor_wauc_24,HEK293 cells [3]; time point 24,1.057
same,hek293_flor_ec50_24,HEK293 cells [3]; [8],-4.702
same,hek293_flor_emax_32,HEK293 cells [3]; time point 32,99.3082
same,hek293_flor_pod_32,HEK293 cells [3]; time point 32,-5.521
same,hek293_flor_wauc_32,HEK293 cells [3]; time point 32,1.407
same,hek293_flor_ec50_32,HEK293 cells [3]; [9],-4.895
same,hek293_flor_emax_40,HEK293 cells [3]; time point 40,135.684
same,hek293_flor_pod_40,HEK293 cells [3]; time point 40,-5.642
same,hek293_flor_wauc_40,HEK293 cells [3]; time point 40,1.5
same,hek293_flor_ec50_40,HEK293 cells [3]; [10],-5.028
same,hepg2_glo_auc,HepG2 cells [4],1.838
same,hepg2_glo_time,HepG2 cells [4],0
same,hepg2_glo_bin,HepG2 cells [4]; kinetics bin,cv_16 (cv_16: 0 < time < 8)
same,hepg2_glo_emax_0,HepG2 cells [4]; time point 0,0
same,hepg2_glo_pod_0,HepG2 cells [4]; time point 0,-4.417
same,hepg2_glo_wauc_0,HepG2 cells [4]; time point 0,0
same,hepg2_glo_emax_8,HepG2 cells [4]; time point 8,-63.2822
same,hepg2_glo_pod_8,HepG2 cells [4]; time point 8,-5.131
same,hepg2_glo_wauc_8,HepG2 cells [4]; time point 8,1.514
same,hepg2_glo_ec50_8,HepG2 cells [4]; [6],-4.735
same,hepg2_glo_emax_16,HepG2 cells [4]; time point 16,-91.4856
same,hepg2_glo_pod_16,HepG2 cells [4]; time point 16,-5.607
same,hepg2_glo_wauc_16,HepG2 cells [4]; time point 16,1.892
same,hepg2_glo_ec50_16,HepG2 cells [4]; [7],-5.318
same,hepg2_glo_emax_24,HepG2 cells [4]; time point 24,-91.3465
same,hepg2_glo_pod_24,HepG2 cells [4]; time point 24,-5.6539
same,hepg2_glo_wauc_24,HepG2 cells [4]; time point 24,1.966
same,hepg2_glo_ec50_24,HepG2 cells [4]; [8],-5.521
same,hepg2_glo_emax_32,HepG2 cells [4]; time point 32,-92.3669
same,hepg2_glo_pod_32,HepG2 cells [4]; time point 32,-5.816
same,hepg2_glo_wauc_32,HepG2 cells [4]; time point 32,2.064
same,hepg2_glo_ec50_32,HepG2 cells [4]; [9],-5.627
same,hepg2_glo_emax_40,HepG2 cells [4]; time point 40,-91.0249
same,hepg2_glo_pod_40,HepG2 cells [4]; time point 40,-5.846
same,hepg2_glo_wauc_40,HepG2 cells [4]; time point 40,2.087
same,hepg2_glo_ec50_40,HepG2 cells [4]; [10],-5.656
same,information,[5],1
O=C(c1ccc(OCCN2CCCCC2)cc1)c1c(-c2ccc(O)cc2)sc2cc(O)ccc12 [Raloxifene hydrochloride],AUC score in Judson 2015,estrogen receptor (ER),0.671
CC/C(=C(\c1ccccc1)c1ccc(OCCN(C)C)cc1)c1ccccc1 [Tamoxifen citrate],AUC score in Judson 2015,estrogen receptor (ER),0.546
CCCCCCCCCCCCOC(=O)c1cc(O)c(O)c(O)c1 [dodecyl gallate],AUC score in Judson 2015,estrogen receptor (ER),0.0773
same,ER antagonist AUC score,estrogen receptor (ER); pathway-level model using all Tox21/ToxCast ER assays of 1812 ToxCast chemicals,higher than 0.01
